One block for each molecule: values may come before it.
Legend:
[1] = test system: Primary human fibroblasts derived from IPF patients (LL29 cells) treated with TGF-β1; assay: Inhibition of the fibrotic process: αSMA staining in TGF-β1-treated primary human fibroblasts from IPF patients (LL29 cells); type: cell-based; settings: Fibroblast, 96 h; for EC50: % αSMA-positive LL29 cells, TGF-β1 20 ng/mL, 4 days; for inhibition at 10 µM: given where EC50 >10 μM, αSMA, LL29 cells, TGF-β1, 4 days, read-out: percent inhibition at 10 μM
Method in brief: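 LL29 IPF-patient fibroblasts in 1% FBS stimulated with TGF-β1 (20 ng/mL) and compound (10 μM–1.87 nM, 0.1% DMSO) for 4 days at 37 °C. SYTOX-positive cells excluded; % αSMA-positive cells imaged, normalized to TGF-β1/DMSO wells; EC50 by nonlinear regression, else % inhibition at 10 μM.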

[2] = test system: primary human mesenchymal stem cells (hMSCs); assay: Induction of chondrogenesis in primary human mesenchymal stem cells (nodule imaging, Rhodamine B / Nile Red); type: cell-based
Method: Representative compounds were screened using primary human mesenchymal stem cells (hMSCs) to determine their ability to induce chondrogenesis (process by which cartilage is developed).
Primary human mesenchymal stem cells (hMSCs) were purchased from Lonza (Walkersville, Md.) and expanded in Mesenchymal Stem Cell Growth Media (Lonza). Cells between passage 3 and 6 were used for the experiments.
Each compound was dissolved in DMSO as a 10 mM stock and used to prepare compound source plates. For the 96 well assay, serial dilution (1:3, 6-point dose-response curves from 2700 nM to 10 nM) and compound transfer was performed using the ECHO 550 (Labcyte, Sunnyvale, Calif.) into 96-well clear bottom assay plates (Greiner Bio-One) with appropriate DMSO backfill for a final DMSO concentration of 0.03%. hMSCs were plated at 20,000 cells/well in 250 μL/well Incomplete Chondrogenic Induction Medium (Lonza; DMEM, dexamethasone, ascorbate, insulin-transferrin-selenium [ITS supplement], gentamycin-amphotericin [GA-1000], sodium pyruvate, proline and L-glutamine). TGF-β3 (10 ng/mL) was used as a positive control for differentiation while negative control wells were treated with 75 nL DMSO for normalization and calculating EC50 values. For the 384 well assay, serial dilution (1:3, 8-point dose-response curves from 5000 nM to 2.2 nM) and compound transfer was performed using the ECHO 550 (Labcyte, Sunnyvale, Calif.) into 384-well clear bottom assay plates (Greiner Bio-One) with appropriate DMSO backfill for a final DMSO concentration of 0.03%. hMSCs were plated at 8,000 cells/well in 80 μL/well Incomplete Chondrogenic Induction Medium (Lonza; DMEM, dexamethasone, ascorbate, insulin-transferrin-selenium [ITS supplement], gentamycin-amphotericin [GA-1000], sodium pyruvate, proline and L-glutamine). TGF-β3 (10 ng/mL) was used as a positive control for differentiation while negative control wells were treated with 25 nL DMSO for normalization and calculating EC50 values. Cells were incubated at 37° C. and 5% CO2 for 6 days. To image chondrogenic nodules, the cells were fixed using 4% formaldehyde (Electron Microscopy Sciences), and stained with 2 μg/mL Rhodamine B (Sigma-Aldrich) and 20 μM Nile Red (Sigma-Aldrich) [Johnson K., et. al, A Stem CellBased Approach to Cartilage Repair, Science, (2012), 336(6082), 717-721]. The nodules imaged (25 images per well for 96 well plates and 9 images per well for 384 well plates at 10× magnification) by excitation at 531 nm and emission at 625 nm and quantified using the CellInsight CX5 (Thermo Scientific). Area of nodules in each well was normalized to the average of 3 DMSO treated wells on the same plate using Excel (Microsoft Inc.). The normalized averages (fold change over DMSO) of 2 or 3 replicate wells for each compound concentration were calculated. Due to solubility limitations of some of the compounds, curve fitting was incomplete leading to inaccurate EC50 determinations.
Using TGF-β3 as a positive control, the concentration of representative compounds required to induce 50% levels of chondrogenesis is reported. In addition, the maximum activity of each compound and the respective dose that each compound reached maximum chondrogenesis activity is reported.

EC50 ([2]; concentration required to induce 50% levels of chondrogenesis vs TGF-β3 positive control, read-out: Conc (nM) of 50% TGF-β3 activity): 100 nM
SMILES: c1ccc2[nH]c(-c3n[nH]c4ccc(-c5cncc(CN6CCCC6)c5)cc34)cc2c1 [Compound 266, 3-(1H-Indol-2-yl)-5-(5-(pyrrolidin-1-ylmethyl)pyridin-3-yl)-1H-indazole]
EC50 [1]: 0.563 µM
Emax ([2]; maximum chondrogenesis activity relative to TGF-β3 (10 ng/mL) positive control, read-out: Max. Activity as % TGF-β3 activity): 217%

SMILES: Fc1ccc(-c2cccc3[nH]c(-c4n[nH]c5ccc(-c6cncnc6)cc45)cc23)cc1 [Compound 55, 3-(4-(4-Fluorophenyl)-1H-indol-2-yl)-5-(pyrimidin-5-yl)-1H-indazole]
EC50 [1]: 6.11 µM

SMILES: CCC(=O)Nc1cncc(-c2ccc3[nH]nc(-c4cc5c(-c6cccc(F)c6)cccc5[nH]4)c3c2)c1 [Compound 1, N-(5-(3-(4-(3-Fluorophenyl)-1H-indol-2-yl)-1H-indazol-5-yl)pyridin-3-yl) propionamide]
EC50 [1]: 5.19 µM

SMILES: c1ccc(-c2ccc3[nH]nc(-c4cc5c(-c6ccoc6)cccc5[nH]4)c3c2)nc1 [Compound 336, 3-(4-(Furan-3-yl)-1H-indol-2-yl)-5-(pyridin-2-yl)-1H-indazole]
EC50 [1]: > 10 µM
inhibition at 10 µM [1]: 0%

SMILES: Fc1cccc(-c2cccc3[nH]c(-c4n[nH]c5ccc(C6CCNCC6)cc45)cc23)c1 [Compound 533, 3-(4-(3-Fluorophenyl)-1H-indol-2-yl)-5-(piperidin-4-yl)-1H-indazole]
EC50 [1]: > 10 µM
inhibition at 10 µM [1]: 0%

SMILES: c1ccc(-c2cccc3[nH]c(-c4n[nH]c5ccc(-c6ccncc6)cc45)cc23)nc1 [Compound 158, 3-(4-(Pyridin-2-yl)-1H-indol-2-yl)-5-(pyridin-4-yl)-1H-indazole]
EC50 [1]: 0.627 µM

SMILES: O=C(Nc1cncc(-c2ccc3[nH]nc(-c4cc5ncccc5[nH]4)c3c2)c1)c1ccccc1 [Compound 515, N-(5-(3-(1H-Pyrrolo[3,2-b]pyridin-2-yl)-1H-indazol-5-yl)pyridin-3-yl) benzamide]
EC50 [1]: > 10 µM
inhibition at 10 µM [1]: 0%

SMILES: c1cnc2cc(-c3n[nH]c4ccc(-c5cncc(CN6CCCCC6)c5)cc34)[nH]c2c1 [Compound 519, 5-(5-(Piperidin-1-ylmethyl)pyridin-3-yl)-3-(1H-pyrrolo[3,2-b]pyridin-2-yl)-1H-indazole]
EC50 [1]: > 10 µM
inhibition at 10 µM [1]: 25.4%

SMILES: O=C(Nc1cncc(-c2ccc3[nH]nc(-c4cc5ccccc5[nH]4)c3c2)c1)C1CCCCC1 [Compound 275, N-(5-(3-(1H-Indol-2-yl)-1H-indazol-5-yl)pyridin-3-yl) cyclohexanecarboxamide]
EC50 [1]: > 10 µM
inhibition at 10 µM [1]: 43.7%

SMILES: CCCCC(=O)Nc1cncc(-c2ccc3[nH]nc(-c4cc5c(-c6ccccn6)cccc5[nH]4)c3c2)c1 [Compound 159, N-(5-(3-(4-(Pyridin-2-yl)-1H-indol-2-yl)-1H-indazol-5-yl)pyridin-3-yl) pentanamide]
EC50 [1]: > 10 µM
inhibition at 10 µM [1]: 45.6%

SMILES: CN(C)Cc1cncc(-c2ccc3[nH]nc(-c4cc5c(-c6ccc(F)cc6)cccc5[nH]4)c3c2)c1 [Compound 41, 1-(5-(3-(4-(4-Fluorophenyl)-1H-indol-2-yl)-1H-indazol-5-yl)pyridin-3-yl)-N,N-dimethylmethanamine]
EC50 [1]: 5.75 µM

SMILES: CCCC(=O)Nc1cncc(-c2ccc3[nH]nc(-c4cc5c(-c6cccc(F)c6)cccc5[nH]4)c3c2)c1 [Compound 17, N-(5-(3-(4-(3-Fluorophenyl)-1H-indol-2-yl)-1H-indazol-5-yl)pyridin-3-yl) butyramide]
EC50 [1]: > 10 µM
inhibition at 10 µM [1]: 0%

SMILES: CCNCc1cncc(-c2ccc3[nH]nc(-c4cc5c(-c6ccccc6F)cccc5[nH]4)c3c2)c1 [Compound 62, N-((5-(3-(4-(2-Fluorophenyl)-1H-indol-2-yl)-1H-indazol-5-yl)pyridin-3-yl)methyl)ethanamine]
EC50 [1]: 7.64 µM

SMILES: O=C(Nc1cncc(-c2ccc3[nH]nc(-c4cc5c(-c6ccc(F)cc6)cccc5[nH]4)c3c2)c1)c1ccccc1 [Compound 39, N-(5-(3-(4-(4-Fluorophenyl)-1H-indol-2-yl)-1H-indazol-5-yl)pyridin-3-yl) benzamide]
EC50 [1]: 1.26 µM

SMILES: FC1(F)CCN(Cc2cncc(-c3ccc4[nH]nc(-c5cc6c(-c7cccnc7)cccc6[nH]5)c4c3)c2)C1 [Compound 110, 5-(5-((3,3-Difluoropyrrolidin-1-yl)methyl)pyridin-3-yl)-3-(4-(pyridin-3-yl)-1H-indol-2-yl)-1H-indazole]
EC50 [1]: 9.98 µM

SMILES: CS(=O)(=O)NCc1cc(F)cc(-c2cccc3[nH]c(-c4n[nH]c5ccc(-c6ccncc6)cc45)cc23)c1 [Compound 494, N-(3-Fluoro-5-(2-(5-(pyridin-4-yl)-1H-indazol-3-yl)-1H-indol-4-yl)benzyl) methane sulfonamide]
EC50 [1]: > 10 µM
inhibition at 10 µM [1]: 10.4%

SMILES: O=C(Nc1cncc(-c2ccc3[nH]nc(-c4cc5ccccc5[nH]4)c3c2)c1)c1ccccc1 [Compound 263, N-(5-(3-(1H-Indol-2-yl)-1H-indazol-5-yl)pyridin-3-yl)benzamide]
EC50 [1]: 1.57 µM

SMILES: O=C(Nc1cncc(-c2ccc3[nH]nc(-c4cc5c(-c6cccc(F)c6)cccc5[nH]4)c3c2)c1)C1CC1 [Compound 20, N-(5-(3-(4-(3-Fluorophenyl)-1H-indol-2-yl)-1H-indazol-5-yl)pyridin-3-yl) cyclopropanecarboxamide]
EC50 [1]: 4.55 µM

SMILES: CCCC(=O)Nc1cncc(-c2ccc3[nH]nc(-c4cc5c(-c6ccc(F)cc6)cccc5[nH]4)c3c2)c1 [Compound 45, N-(5-(3-(4-(4-Fluorophenyl)-1H-indol-2-yl)-1H-indazol-5-yl)pyridin-3-yl)butyramide]
EC50 [1]: 5.52 µM

SMILES: Fc1cccc(-c2cccc3[nH]c(-c4n[nH]c5ccc(-c6ccccn6)cc45)cc23)c1 [Compound 28, 3-(4-(3-Fluorophenyl)-1H-indol-2-yl)-5-(pyridin-2-yl)-1H-indazole]
EC50 [1]: 6.82 µM

SMILES: O=C(Cc1ccccc1)Nc1cncc(-c2ccc3[nH]nc(-c4cc5ccccc5[nH]4)c3c2)c1 [Compound 262, N-(5-(3-(1H-Indol-2-yl)-1H-indazol-5-yl)pyridin-3-yl)-2-phenylacetamide]
EC50 [1]: > 10 µM
inhibition at 10 µM [1]: 31.8%

SMILES: CC(C)(C)C(=O)Nc1cncc(-c2ccc3[nH]nc(-c4cc5c(-c6ccc(F)cc6)cccc5[nH]4)c3c2)c1 [Compound 36, N-(5-(3-(4-(4-Fluorophenyl)-1H-indol-2-yl)-1H-indazol-5-yl)pyridin-3-yl) pivalamide]
EC50 [1]: 3.33 µM

SMILES: c1cc(-c2ccncc2)c2cc(-c3n[nH]c4ccc(-c5ccncc5)cc34)[nH]c2c1 [Compound 130, 5-(Pyridin-4-yl)-3-(4-(pyridin-4-yl)-1H-indol-2-yl)-1H-indazole]
EC50 [1]: 1.65 µM

SMILES: Cc1ccncc1-c1ccc2[nH]nc(-c3cc4c(-c5ccccn5)cccc4[nH]3)c2c1 [Compound 145, 5-(4-Methylpyridin-3-yl)-3-(4-(pyridin-2-yl)-1H-indol-2-yl)-1H-indazole]
EC50 [1]: 2.94 µM

SMILES: CC(C)C(=O)Nc1cncc(-c2ccc3[nH]nc(-c4cc5c(-c6ccsc6)cccc5[nH]4)c3c2)c1 [Compound 289, N-(5-(3-(4-(Thiophen-3-yl)-1H-indol-2-yl)-1H-indazol-5-yl)pyridin-3-yl) isobutyramide]
EC50 [1]: 8.4 µM

SMILES: c1cc(N2CCCCC2)c2cc(-c3n[nH]c4ccc(-c5cncc(OC6CCCCC6)c5)cc34)[nH]c2c1 [Compound 635, 5-(5-(Cyclohexyloxy)pyridin-3-yl)-3-(4-(piperidin-1-yl)-1H-indol-2-yl)-1H-indazole]
EC50 [1]: 2.41 µM

SMILES: c1cc(-c2ccoc2)c2cc(-c3n[nH]c4ccc(-c5cncc(OC6CCNCC6)c5)cc34)[nH]c2c1 [Compound 716, 3-(4-(Furan-3-yl)-1H-indol-2-yl)-5-(5-(piperidin-4-yloxy)pyridin-3-yl)-1H-indazole]
EC50 [1]: 9.99 µM

— patent US10604512B2, “3-(1H-indol-2-yl)-1H-indazoles and therapeutic uses thereof” (Samumed, LLC, priority 2015, dated 2020)
